Like-named read-outs stand apart in the source and are kept apart here.
Test system: type 2 herpes simplex strain 3345
Experiment: In vitro bioassay: inhibition of virus replication in infected African green monkey kidney cells
Type: cell-based, type 2 herpes simplex virus
Details: for inhibition at 1000 µg/mL: frusemide 1 mg/ml, African green monkey kidney cells; for Inhibition of hsv2, Effect of bendrofluazide: 0.25 mg bendrofluazide/ml liquid medium
From the text: In vitro bioassays were undertaken to follow the anti-viral activity of a diuretic compound. […] Inhibition of virus replication was scored on the scale: […]

For `CCCCNC(=O)NS(=O)(=O)c1ccc(C)cc1` [tolbutamide], the “Inhibition of hsv2, effect of tolbutamide” value (“Inhibition … of tolbutamide” below) (High multiplicity of infection, 0.5 mg tolbutamide/ml liquid medium) was “+ (20% inhibition)”, the “Inhibition … of tolbutamide” value (High multiplicity of infection, 5 mg tolbutamide/ml liquid medium) was “++ (40% inhibition)” and the “Inhibition … of tolbutamide” value (High multiplicity of infection, 50 mg tolbutamide/ml liquid medium) was “+++ (60% inhibition)”. The “Inhibition … of tolbutamide” value (Low multiplicity of infection, 0.5 mg tolbutamide/ml liquid medium) was “++ (40% inhibition)”, the “Inhibition … of tolbutamide” value (Low multiplicity of infection, 5 mg tolbutamide/ml liquid medium) was “+++ (60% inhibition)” and the “Inhibition … of tolbutamide” value (Low multiplicity of infection, 50 mg tolbutamide/ml liquid medium) was “+++++ (100% inhibition)”. For the same compound, the “Inhibition … of tolbutamide” value (Medium multiplicity of infection, 0.5 mg tolbutamide/ml liquid medium) was “+ (20% inhibition)”, the “Inhibition … of tolbutamide” value (Medium multiplicity of infection, 5 mg tolbutamide/ml liquid medium) was “+++ (60% inhibition)” and the “Inhibition … of tolbutamide” value (Medium multiplicity of infection, 50 mg tolbutamide/ml liquid medium) was “++++ (80% inhibition)”.

`NS(=O)(=O)c1cc(C(=O)O)c(NCc2ccco2)cc1Cl` [frusemide, 4-chloro-N-furfuryl-5-sulfamoylanthranilic acid] was tested, and the inhibition at 1000 µg/mL (Human alphaherpesvirus 2, read-out: Inhibition of hsv2, Effect of frusemide, High multiplicity of infection) was 0%, the inhibition at 1000 µg/mL (Human alphaherpesvirus 2, read-out: Inhibition of hsv2, Effect of frusemide, Low multiplicity of infection) was 40% and the inhibition at 1000 µg/mL (Human alphaherpesvirus 2, read-out: Inhibition of hsv2, Effect of frusemide, Medium multiplicity of infection) was 40%.

For `NS(=O)(=O)c1cc2c(cc1C(F)(F)F)NC(Cc1ccccc1)NS2(=O)=O` (stereo not drawn) [bendrofluazide], the “Inhibition of hsv2, Effect of bendrofluazide” value (“Inhibition … of bendrofluazide” for short) (High multiplicity of infection) was “++ (40% inhibition)”, the “Inhibition … of bendrofluazide” value (Low multiplicity of infection) was “++++ (80% inhibition)” and the “Inhibition … of bendrofluazide” value (Medium multiplicity of infection) was “++++ (80% inhibition)”.

Reference: patent US20060122174A1, “Antiviral treatment” (Henderson Morley Research & Development Limited, priority 2001, published 2006)
